Reference: patent publication US9663516B2, “Bicyclic-pyrimidinedione compounds” (MyoKardia, Inc., priority 2014, dated 2017)

Experiments:
[1] = system: adult rat ventricular myocytes; test: Cardiomyocyte contractility assay (fractional shortening, IonOptix edge detection); assay type: cell-based; conditions: 1 Hz pacing; for inhibition at 0.3 µM / inhibition at 1 µM / inhibition at 0.1 µM: Ventricular myocyte; for inhibition at 1 µM: 1.0 μM compound; for inhibition at 0.1 µM: 0.1 μM compound
Experimental: Contractility of adult rat ventricular myocytes is determined by edge detection with an IonOptix contractility system. Aliquots of myocytes in Tyrode buffer (137 mM NaCl, 3.7 mM KCL, 0.5 mM MgCl2, 1.5 mM CaCl2, 4 mM HEPES, 11 mM glucose) are placed in a perfusion chamber (Series 20 RC-27NE; Warner Instruments), allowed to adhere to the coverslip, and then perfused with 37° C. Tyrode buffer. Myocytes are filed stimulated at 1 Hz and 10V. Only myocytes with clear striations, quiescent prior to pacing, with a cell length of 120-180 microns, a basal fractional shortening equal to 3-8% of the cell length, and a contraction velocity greater than 100 microns per second are used for contractility experiments. To determine the response to compounds, myocytes are first perfused for 60 seconds with Tyrodes buffer followed by 5 minutes of compound and a 140 second washout with Tyrodes buffer. Data is continuously recorded using IonOptix software. Contractility data is analyzed using Ionwizard software (IonOptix). For each cell, 10-20 contractility transients were averaged and compared under basal (no compound) and compound-treated conditions. Compound activity is measured by effects on fractional shortening (FS), where fractional shortening is the ratio of the peak length of the cell at contraction divided by the basal cell length normalized to 100% for an untreated cell.

bovine cardiac myosin = bovine cardiac myosin (Bos taurus, UniProt Q9BE39); test: Myosin inhibition assay (PK/LDH-coupled ATPase, bovine cardiac myofibrils); assay type: biochemical; conditions: calcium concentration giving 50% activation, pH 6.8, read-out: bcMF pCa_6 IC50
Experimental: Small molecule agents were assessed for their ability to inhibit the enzymatic activity of bovine cardiac myosin using a biochemical assay that couples the release of ADP (adenosine diphosphate) from cardiac myosin to an enzymatic coupling system consisting of pyruvate kinase and lactate dehydrogenase (PK/LDH) and monitoring the absorbance decrease of NADH (at 340 nm) as a function of time. PK converts ADP to ATP (adenosine triphosphate) by converting PEP (phosphoenolpyruvate) to pyruvate. Pyruvate is then converted to lactate by LDH by converting NADH (nicotinamide adenine dinucleotide) to NAD (oxidized nicotinamide adenine dinucleotide). […] Prior to testing small molecule agents, the bovine myofibrils were assessed for their calcium responsiveness and the calcium concentration that achieves a 50% activation of the myofibril system was chosen as the final condition for assessing the inhibitory activity of the small molecule agents. All enzymatic activity was measured in a buffered solution containing 12 mM PIPES (piperazine-N,N′-bis(2-ethanesulfonic acid), 2 mM magnesium chloride at pH 6.8 (PM12 buffer). Final assay conditions were 1 mg/mL of bovine cardiac myofibrils, 0.4 mM PK/LDH, 50 uM ATP, 0.1 mg/mL BSA (bovine serum albumin), 10 ppm antifoam, 2 mM BME, 0.5 mM NADH, 1.5 mM PEP at the desired free calcium concentration required to achieve 50% activation of the myofibrils.
A dilution series of compound was created in DMSO such that the final desired concentration of compound would be achieved in a volume of 30 μL with a fixed DMSO concentration of 3.3% (v/v). Typically 1 μL of the dilution series were added to 384 well plate to achieve an 10 point dose response. Following the addition of 14 μL of a solution containing bovine cardiac myofibrils, PK/LDH and a solution of calcium (that achieved 50% activation), the enzymatic reaction was started with the addition of 15 μL of a solution containing ATP, PEP and NADH. The reaction progress was followed in a PerkinElmer Envision plate reader at ambient temperature using clear bottom plates. The plate reader was configured to read absorbance at 340 nm in kinetics mode for 15 minutes. Data were recorded as the slope of the absorbance response to time. The slopes of the absorbance response as a function of time were normalized to slopes on the plate containing DMSO. This normalized rate was then plotted as a function of small molecule concentration and the data was fitted to a four-parameter fit using EXCEL XLfit. The IC50 is the concentration at which fifty percent of the total response is inhibited.

Sequence of bovine cardiac myosin (Q9BE39 whole entry): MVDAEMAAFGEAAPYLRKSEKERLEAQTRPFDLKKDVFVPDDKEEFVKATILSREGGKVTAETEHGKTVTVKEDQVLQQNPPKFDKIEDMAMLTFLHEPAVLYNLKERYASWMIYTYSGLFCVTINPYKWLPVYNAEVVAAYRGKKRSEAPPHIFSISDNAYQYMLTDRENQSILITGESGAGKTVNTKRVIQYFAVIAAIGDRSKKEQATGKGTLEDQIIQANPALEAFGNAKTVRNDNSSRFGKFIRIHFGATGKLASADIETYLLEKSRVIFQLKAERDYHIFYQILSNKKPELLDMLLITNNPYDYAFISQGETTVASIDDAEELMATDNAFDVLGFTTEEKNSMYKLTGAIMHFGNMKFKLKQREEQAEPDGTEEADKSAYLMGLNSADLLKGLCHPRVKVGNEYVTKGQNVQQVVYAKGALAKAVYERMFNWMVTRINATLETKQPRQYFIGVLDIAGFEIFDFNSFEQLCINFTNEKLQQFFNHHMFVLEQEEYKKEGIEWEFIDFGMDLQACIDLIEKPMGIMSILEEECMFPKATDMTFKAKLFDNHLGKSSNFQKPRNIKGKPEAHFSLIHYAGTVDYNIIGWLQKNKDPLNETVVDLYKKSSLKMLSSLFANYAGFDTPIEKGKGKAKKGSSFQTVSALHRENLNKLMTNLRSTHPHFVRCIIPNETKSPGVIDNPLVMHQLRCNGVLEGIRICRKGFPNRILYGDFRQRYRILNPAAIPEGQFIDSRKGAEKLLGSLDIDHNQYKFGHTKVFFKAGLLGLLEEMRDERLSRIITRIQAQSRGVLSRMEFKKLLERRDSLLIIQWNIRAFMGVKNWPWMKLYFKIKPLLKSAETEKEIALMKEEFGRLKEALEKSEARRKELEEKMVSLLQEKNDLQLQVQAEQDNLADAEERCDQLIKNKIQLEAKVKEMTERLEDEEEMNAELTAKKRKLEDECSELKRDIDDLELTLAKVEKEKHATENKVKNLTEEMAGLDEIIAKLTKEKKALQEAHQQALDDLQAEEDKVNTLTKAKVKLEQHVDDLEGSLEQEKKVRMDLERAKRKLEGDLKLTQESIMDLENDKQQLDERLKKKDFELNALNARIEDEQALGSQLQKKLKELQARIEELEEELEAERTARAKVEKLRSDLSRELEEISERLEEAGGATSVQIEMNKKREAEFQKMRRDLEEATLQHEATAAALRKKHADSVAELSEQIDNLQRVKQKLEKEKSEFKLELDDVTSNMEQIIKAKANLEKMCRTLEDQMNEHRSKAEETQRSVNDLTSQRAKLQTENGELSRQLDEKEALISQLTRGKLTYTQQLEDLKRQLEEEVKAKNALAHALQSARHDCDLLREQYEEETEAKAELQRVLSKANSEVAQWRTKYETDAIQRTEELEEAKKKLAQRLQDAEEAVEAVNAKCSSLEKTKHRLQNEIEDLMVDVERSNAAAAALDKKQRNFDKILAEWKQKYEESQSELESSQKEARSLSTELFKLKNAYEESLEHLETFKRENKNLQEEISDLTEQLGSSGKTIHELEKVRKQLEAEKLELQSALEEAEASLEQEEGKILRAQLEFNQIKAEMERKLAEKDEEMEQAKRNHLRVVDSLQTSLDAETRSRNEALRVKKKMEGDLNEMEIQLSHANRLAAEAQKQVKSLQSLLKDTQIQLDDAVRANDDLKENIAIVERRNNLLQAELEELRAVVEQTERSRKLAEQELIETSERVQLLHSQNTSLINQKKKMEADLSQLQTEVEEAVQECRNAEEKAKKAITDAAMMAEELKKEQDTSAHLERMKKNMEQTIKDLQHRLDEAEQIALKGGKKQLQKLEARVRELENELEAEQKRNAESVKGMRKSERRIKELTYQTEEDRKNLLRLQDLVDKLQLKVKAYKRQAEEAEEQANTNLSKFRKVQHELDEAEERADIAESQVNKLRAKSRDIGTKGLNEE
Sequence of bovine cardiac myosin (P85100 whole entry partner): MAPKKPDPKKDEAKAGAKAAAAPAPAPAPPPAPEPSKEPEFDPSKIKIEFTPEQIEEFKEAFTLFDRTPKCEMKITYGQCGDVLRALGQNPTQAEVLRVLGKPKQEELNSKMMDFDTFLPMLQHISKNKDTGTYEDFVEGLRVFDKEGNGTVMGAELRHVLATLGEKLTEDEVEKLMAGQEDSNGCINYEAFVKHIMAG
Sequence of bovine cardiac myosin (Q3SZE5 whole entry partner): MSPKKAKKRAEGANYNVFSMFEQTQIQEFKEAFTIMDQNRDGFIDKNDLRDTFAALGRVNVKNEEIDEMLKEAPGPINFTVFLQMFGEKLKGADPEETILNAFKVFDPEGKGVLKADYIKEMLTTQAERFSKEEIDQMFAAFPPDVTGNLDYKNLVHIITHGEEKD

| Molecule | IC50 (bovine cardiac myosin) | inhibition at 0.3 µM ([1]; 0.3 μM compound) | inhibition at 1 µM [1] | inhibition at 0.1 µM [1] | Activity at 0.3 μM (fractional shortening inhibition) ([1]; 0.3 μM compound) |
| --- | --- | --- | --- | --- | --- |
| CC(C)n1c(=O)[nH]c2c(c1=O)CC[C@H](c1ccc(F)c(F)c1)N2 [Compound 4, (7R)-7-(3,4-difluorophenyl)-3-isopropyl-5,6,7,8-tetrahydropyrido[2,3-d]pyrimidine-2,4(1H,3H)-dione] | 1000 to 15000 nM | 33 to 66% | – | < 33% | – |
| CC(C)n1c(=O)[nH]c2c(c1=O)CC[C@H](C1CCC(F)(F)CC1)N2 [Compound 46] | < 1000 nM | – | > 66% | – | – |
| CCn1c(=O)[nH]c2c(c1=O)CC[C@H](c1ccccc1F)N2 [Compound 14] | 1000 to 15000 nM | < 33% | > 66% | – | – |
| CCn1c(=O)[nH]c2c(c1=O)CC[C@H](c1ccc(F)cc1)N2 [Compound 20] | 1000 to 15000 nM | – | 33 to 66% | – | – |
| CC(C)n1c(=O)[nH]c2c(c1=O)CC[C@H](c1ccccc1F)N2 [Compound 69, (R)-7-(2-Fluorophenyl)-3-isopropyl-5,6,7,8-tetrahydropyrido[2,3-d]pyrimidine-2,4(1H,3H)-dione] | 1000 to 15000 nM | – | – | > 66% | – |
| CC[C@H](C)n1c(=O)[nH]c2c(c1=O)CC[C@H](c1ccc(F)c(F)c1)N2 [Compound 18] | 1000 to 15000 nM | 33 to 66% | – | – | – |
| CC(C)n1c(=O)[nH]c2c(c1=O)CC(F)(F)[C@H](c1ccccc1)N2 [Compound 116, (S)-6,6-Difluoro-3-isopropyl-7-phenyl-5,6,7,8-tetrahydropyrido[2,3-d]pyrimidine-2,4(1H,3H)-dione] | 1000 to 15000 nM | 33 to 66% | > 66% | – | – |
| CC(C)n1c(=O)[nH]c2c(c1=O)CC[C@H](c1cccc(F)c1)N2 [Compound 68, (R)-7-(3-Fluorophenyl)-3-isopropyl-5,6,7,8-tetrahydropyrido[2,3-d]pyrimidine-2,4(1H,3/H)-dione] | 1000 to 15000 nM | – | – | > 66% | – |
| CC(C)n1c(=O)[nH]c2c(c1=O)CC[C@H](c1cc(F)ccc1F)N2 [Compound 17] | 1000 to 15000 nM | – | – | – | – |
| Cc1cccc([C@@H]2CCc3c([nH]c(=O)n(C(C)C)c3=O)N2)c1 [Compound 103] | > 15000 nM | – | – | – | – |

Second part, led by results:

| IC50 (bovine cardiac myosin) | Molecule | inhibition at 0.3 µM ([1]; 0.3 μM compound) | inhibition at 1 µM [1] | inhibition at 0.1 µM [1] | Activity at 0.3 μM (fractional shortening inhibition) ([1]; 0.3 μM compound) |
| --- | --- | --- | --- | --- | --- |
| 1000 to 15000 nM | O=c1[nH]c2c(c(=O)n1-c1ccccc1)CC[C@H](c1ccc(F)c(F)c1)N2 [Compound 48] | < 33% | < 33% | – | – |
| 1000 to 15000 nM | CCn1c(=O)[nH]c2c(c1=O)CC[C@H](c1ccc(F)c(F)c1)N2 [Compound 9, (R)-7-(3,4-Difluorophenyl)-3-ethyl-5,6,7,8-tetrahydropyrido[2,3-d]pyrimidine-2,4(1H,3H)-dione] | – | 33 to 66% | – | – |
| < 1000 nM | O=c1[nH]c2c(c(=O)n1C1CCC1)CC[C@H](C1CCC(F)(F)CC1)N2 [Compound 31] | 33 to 66% | – | – | – |
| < 1000 nM | CC(C)n1c(=O)[nH]c2c(c1=O)CC[C@](C)(c1ccccc1)N2 [Compound 106] | – | – | > 66% | – |
| 1000 to 15000 nM | O=c1[nH]c2c(c(=O)n1CC(F)F)CC[C@H](c1ccc(F)c(F)c1)N2 [Compound 22] | – | 33 to 66% | – | – |
| < 1000 nM | O=c1[nH]c2c(c(=O)n1-c1cc(F)cc(F)c1)CC[C@H](C1CCC(F)(F)CC1)N2 [Compound 2, (R)-7-(4,4-Difluorocyclohexyl)-3-(3,5-difluorophenyl)-5,6,7,8-tetrahydropyrido[2,3-d]pyrimidine-2,4(1H,3H)-dione] | < 33% | > 66% | – | – |
| < 1000 nM | CC(C)n1c(=O)[nH]c2c(c1=O)CC[C@H](c1ccc(F)cc1F)N2 [Compound 6, (R)-7-(2,4-Difluorophenyl)-3-isopropyl-5,6,7,8-tetrahydropyrido[2,3-d]pyrimidine-2,4(1H,3H)-dione] | 33 to 66% | > 66% | – | – |
| 1000 to 15000 nM | (R)-3-Isopropyl-7-phenyl-7,8-dihydropyrido[2,3-d]pyrimidine-2,4,5(1H,3H,6H)-trione [Compound 1] | – | – | – | ++ (++ represents fractional shorting inhibition values from 33% to 66%) |
| 1000 to 15000 nM | O=c1[nH]c2c(c(=O)n1CC(F)(F)F)CC[C@H](c1ccc(F)c(F)c1)N2 [Compound 70] | – | 33 to 66% | – | – |
| 1000 to 15000 nM | CCn1c(=O)[nH]c2c(c1=O)CC[C@H](C1CCC(F)(F)CC1)N2 [Compound 53] | – | 33 to 66% | – | – |
| 1000 to 15000 nM | CC1(n2c(=O)[nH]c3c(c2=O)CC[C@H](c2ccc(F)c(F)c2)N3)CC1 [Compound 81] | – | 33 to 66% | – | – |
| 1000 to 15000 nM | CC(C)n1c(=O)[nH]c2c(c1=O)CC[C@H](c1ccc(F)cc1)N2 [Compound 67] | 33 to 66% | – | – | – |
| < 1000 nM | CC[C@@H](C)n1c(=O)[nH]c2c(c1=O)CC[C@H](c1ccc(F)c(F)c1)N2 [Compound 83] | 33 to 66% | – | – | – |
| 1000 to 15000 nM | O=c1[nH]c2c(c(=O)n1CC1CC1)CC[C@H](c1ccc(F)c(F)c1)N2 [Compound 82] | – | – | – | – |
